Measurements published in ChEMBL document CHEMBL1144958 (Bioorg Med Chem Lett, 2003).

What was measured:
[1] = molecular target: Neuronal acetylcholine receptor; alpha4/beta2 (Rattus norvegicus, UniProt P09483+P12390); test: Binding affinity towards alpha4-beta2 nicotinic receptor was determined in rat brain membrane using [3H]cytisine as radioligand; type: cell membranes
HEK293 = test: Binding affinity towards nicotinic acetylcholine receptor alpha7 - 5-hydroxytryptamine 3 receptor was determined in transfected HEK cells (alpha7) using [125I]-alpha-BgTx as radioligand; type: cell-based

Chain of Neuronal acetylcholine receptor; alpha4/beta2 (P09483 whole entry): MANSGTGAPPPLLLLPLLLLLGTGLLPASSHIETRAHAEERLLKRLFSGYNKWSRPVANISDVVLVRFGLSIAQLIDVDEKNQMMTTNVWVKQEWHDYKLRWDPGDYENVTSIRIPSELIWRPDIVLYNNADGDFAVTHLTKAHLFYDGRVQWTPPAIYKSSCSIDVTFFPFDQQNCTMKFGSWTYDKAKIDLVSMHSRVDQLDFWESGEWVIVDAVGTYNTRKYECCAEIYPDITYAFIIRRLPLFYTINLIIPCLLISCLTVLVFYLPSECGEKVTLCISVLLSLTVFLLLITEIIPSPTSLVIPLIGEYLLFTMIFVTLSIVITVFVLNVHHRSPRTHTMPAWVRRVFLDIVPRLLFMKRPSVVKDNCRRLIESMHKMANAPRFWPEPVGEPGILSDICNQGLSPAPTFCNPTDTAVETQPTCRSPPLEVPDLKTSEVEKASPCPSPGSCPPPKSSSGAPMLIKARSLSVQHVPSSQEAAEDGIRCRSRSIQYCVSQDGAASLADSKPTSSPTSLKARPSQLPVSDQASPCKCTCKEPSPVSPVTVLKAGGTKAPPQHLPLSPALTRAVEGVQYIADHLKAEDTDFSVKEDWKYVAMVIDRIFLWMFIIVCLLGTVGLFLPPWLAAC
Chain of Neuronal acetylcholine receptor; alpha4/beta2 (P12390 whole entry): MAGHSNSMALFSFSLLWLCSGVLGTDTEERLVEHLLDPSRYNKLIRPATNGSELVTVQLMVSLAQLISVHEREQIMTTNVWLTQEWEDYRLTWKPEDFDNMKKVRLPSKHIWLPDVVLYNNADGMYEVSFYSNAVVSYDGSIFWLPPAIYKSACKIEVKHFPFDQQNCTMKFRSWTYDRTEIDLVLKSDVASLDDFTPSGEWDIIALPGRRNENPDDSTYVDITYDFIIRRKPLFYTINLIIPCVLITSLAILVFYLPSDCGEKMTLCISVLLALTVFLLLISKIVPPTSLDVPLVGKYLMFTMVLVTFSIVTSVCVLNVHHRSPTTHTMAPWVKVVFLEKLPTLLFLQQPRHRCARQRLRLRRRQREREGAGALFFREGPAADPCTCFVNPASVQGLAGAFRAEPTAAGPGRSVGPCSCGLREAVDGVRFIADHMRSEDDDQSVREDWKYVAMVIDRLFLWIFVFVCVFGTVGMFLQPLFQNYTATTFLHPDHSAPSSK

Structure (SMILES): COC(=O)Nc1ccc(C2CC3CCC2N3)cn1 (configuration not stated)
- Ki [1]: 8100 nM
- binding affinity (HEK293): > 1000 µM

Structure (SMILES): Clc1ncc(C2CC3CCC2N3)cn1 (configuration not stated)
- Ki [1]: 0.31 nM
- binding affinity (HEK293): 0.76 µM

Structure (SMILES): Clc1ccc(C2CC3CCC2N3)cn1 (configuration not stated)
- binding affinity (HEK293): 0.075 µM

Structure (SMILES): O=C(CCl)Nc1ccc(C2CC3CCC2N3)cn1 (configuration not stated)
- Ki [1]: 16.3 nM
- binding affinity (HEK293): 23 µM
